From US5804592A, “Method for improving disturbed behavior and elevating mood in humans” (Unimed Pharmaceuticals, Inc., priority 1997, dated 1998)
“Also recorded” adds a separate entry of the source.

Tests used:
[1] = Possible side effects determined every week by asking the primary caregivers (Table 2); format: in vivo, human
From the text: (§1) Each patient in the this example was diagnosed with "probable" DAT by a neurologist according to DSM III-R and NINCDS-ARDDA criteria. These generally accepted criteria include deficits in two or more areas of cognition, progressive worsening of memory and other cognitive functions, no disturbances of consciousness, and absence of systemic disorders or other brain disease that in and of themselves could account for the progressive deficits in memory and cognition. (McKhann et al., Neurology, 34: 939-944 (1984). Each patient received physical examination and laboratory examination including complete blood count with differential, liver function tests, thyroid function tests including TSH, iron binding capacity, BUN, creatinine, and electrolytes.
(§2) A double blind placebo-controlled crossover design was used with each period of study lasting six weeks. Dronabinol or placebo was administered on a fixed dose schedule, 2.5 mg capsule or identically looking placebo capsule every morning and noon. Subjects were randomly assigned to placebo first or dronabinol first groups. Possible side effects were determined every week by asking the primary caregivers if the patient experienced any of a list of possible symptoms. A list of these symptoms observed in twelve patients over seventy weeks is identified in Table 2 below.

[2] = four compartment model; Agurell et al. 1986; cited from earlier work
[3] = Double blind placebo-controlled crossover study: Lawton Observed Affect Scale - Past (negative and positive affect); format: in vivo, human
From the text: as §1, §2
(§3) Baseline measurements were taken the week prior to randomization and treatment initiation. Behavior measures were obtained weekly for the 12 week duration of the trial. Repeated measures on these variables were therefore available for six weeks on dronabinol and six weeks on placebo for each subject.
Patients' affect was measured using Lawton Observed Affect Scale - Past (Lawton et al., J. Gerontol. [B], 51B: P3-14 (1996)). This scale consists of six items, three measuring positive affect (pleasure, interest and contentment) and three measuring negative affect (anger, anxiety/fear and depression/sadness) on a 5 point scale (from 1=never to 5=more than 3 time a day). The negative and positive affect scores were calculated by adding scores of the appropriate items.
(§4) Statistical analysis was performed using Statistix 4.1 (Analytic Software). Repeated measures ANOVA for the 12 weeks of the study was done to test for effects of order, time and treatment on-study variables.

[4] = AIDS patients, after dronabinol treatment; Gorter 1991, Beal 1995; cited from earlier work
[5] = cited from earlier work
[6] = Double blind placebo-controlled crossover study: Cohen-Mansfield Agitation Inventory (CMAI), disturbed behavior; format: in vivo, human
From the text: as §1
(§5) Eleven of the patients were on a psychoactive medication before the beginning of dronabinol study and were maintained on the same medication during the study period. Four patients were receiving regular doses of neuroleptics (perphenazine, thiothixene, haloperidol or thioridazine), 4 patients were receiving regular doses of benzodiazepienes (3 lorazepam and one alprazolam), and 8 patients were receiving regular doses of antidepressants. The antidepressants included sertraline (8 patients), trazodone (4 patients) and desipramine (1 patient). Three patients were on both sertraline and trazodone, and one patient was switched from trazodone to doxepin. Antidepressant treatment was initiated at least 4 weeks before the start of the study and the mean duration of antidepressant treatment before study initiation was 7 months. Eleven patients had orders for psychoactive medications as needed (PRN). These included lorazepam in 4 patients and alprazolam, trazodone, doxepin, haloperidol, perphenazine and thioridazine in one patient each. The patients received these medications very rarely, on the average 9.7 doses/6 weeks during the placebo administration and 7.2 doses/6 weeks during dronabinol treatment.
as §2, §3
The disturbed behavior was measured by the Cohen-Mansfield Agitation Inventory (CMAI)(Cohen-Mansfieldet al., J. Gerontol. Med. Sci., 44: M77-84 (1989)) which is a widely used instrument with good psychometric properties. Twenty nine items of this inventory are rated by frequency (from 1=never to 7=constantly or almost constantly) and by disruptiveness (from 1=not at all to 5=extremely). For each observation period, the total score was calculated by multiplying the frequency and disruptiveness of individual items and adding the products. The CMAI items observed are identified in Table 3 below.
as §4

[7] = Use of as needed (PRN) psychoactive medication during the study; format: in vivo, human; conditions: during dronabinol treatment; placebo administration 9.7
From the text: as §5, with “The patients received these medications very rarely, on the average 9.7 doses/6 weeks during the placebo administration and 7.2 doses/6 weeks during dronabinol treatment.” left out
A double blind placebo-controlled crossover design was used with each period of study lasting six weeks. […] Possible side effects were determined every week by asking the primary caregivers if the patient experienced any of a list of possible symptoms. […]

[8] = 12 patients, 2.5 mg capsule every morning and noon, six weeks
[9] = seventy weeks observed, 2.5 mg capsule every morning and noon
[10] = decrease during the 12 weeks study period (both phases), df=5,143
[11] = dronabinol first vs placebo first, df=5,143
[12] = repeated measures ANOVA, df=5,143
[13] = repeated measures ANOVA, df=1,143
[14] = repeated measures ANOVA, df=5,143, dronabinol/placebo crossover

## CCCCCc1cc(O)c2c(c1)OC(C)(C)[C@@H]1CCC(C)=C[C@@H]21 (relative stereo) [dronabinol, (6aR-trans)-6a,7,8,10a-tetrahydro-6,6,9-trimethyl-3-pentyl-6H-dibenzo[b,d]pyran-1-ol]
[1]; [8]
  Anxiety/nervousness, percentage of total patients: 92%
  Ataxia, percentage of total patients: 16%
  Depression, percentage of total patients: 16%
  Diarrhea, percentage of total patients: 16%
  Emotional lability, percentage of total patients: 92%
  Euphoria, percentage of total patients: 58%
  Flushing, percentage of total patients: 8%
  Hallucination, percentage of total patients: 33%
  Headache, percentage of total patients: 8%
  Increased confusion, percentage of total patients: 8%
  Muscle pain, percentage of total patients: 16%
  Paranoid reaction, percentage of total patients: 33%
  Somnolence, percentage of total patients: 67%
  Sweating, percentage of total patients: 8%
  Tiredness, percentage of total patients: 75%
[1]; dronabinol treated patient
  Incidence of seizure: one
[1]; dronabinol treatment vs placebo periods
  Euphoria as an adverse reaction, frequency vs placebo: reported more frequently and in more patients during the dronabinol treatment than during placebo periods
[1]; patients treated with dronabinol vs patients on placebo
  Somnolence, frequency vs placebo: twice as common
[1]; [9]
  Anxiety/nervousness, percentage of weeks: 53%
  Ataxia, percentage of weeks: 8%
  Depression, percentage of weeks: 6%
  Diarrhea, percentage of weeks: 4%
  Emotional lability, percentage of weeks: 46%
  Euphoria, percentage of weeks: 44%
  Flushing, percentage of weeks: 3%
  Hallucination, percentage of weeks: 16%
  Headache, percentage of weeks: 1%
  Increased confusion, percentage of weeks: 3%
  Muscle pain, percentage of weeks: 10%
  Paranoid reaction, percentage of weeks: 23%
  Somnolence, percentage of weeks: 41%
  Sweating, percentage of weeks: 3%
  Tiredness, percentage of weeks: 36%
[2]
  Initial half-life: four
  Terminal half-life: 25 to 36 h
[3]; [10]
  Negative affect score, F(time): 2.46
  Negative affect score, p for F(time): 0.045
[3]; dronabinol and placebo treatments, six weeks each
  Positive affect score, change: positive affect remained similar during both treatments; also recorded: did not change the Positive Affect
[3]; dronabinol first vs placebo first
  Negative affect score, decrease by order of treatment: the decrease was greater for those who received dronabinol first, compared to those who received placebo first
[3]; [11]
  Negative affect score, F(order×time): 5.45
  Negative affect score, p for F(order×time): < 0.0005
[3]; on dronabinol vs placebo periods
  Negative affect score, change vs placebo periods: decreased more while patients were on dronabinol then during the placebo periods
[3]; [12]
  Negative affect score, F(time×treatment): 3.98
  Negative affect score, p for F(time×treatment): 0.004
[4]
  Mood / sense of well-being: elevated mood or sense of well-being
[5]; after initiation of a supervised abstinence, Dackis et al. 1982
  Low levels of dronabinol metabolites detected in urine and feces, time: 2-5 weeks
[5]; urine, after ingestion of marijuana, Ellis et al. 1985
  Presence of tetrahydrocannabinol metabolites in the urine, time after ingestion: ≤ 77 days
[6]; during dronabinol treatment, 2.5 mg morning and noon, six weeks
  Disturbed behavior (CMAI score), change: Disturbed behavior decreased during dronabinol treatment
[6]; placebo period following treatment with dronabinol
  Disturbed behavior (CMAI), persistence of decrease: this decrease in disturbed behavior persisted during the placebo period following treatment with dronabinol; also recorded: carried over to the following placebo period
[6]; [13]
  CMAI score, F(order×treatment): 2.78
  CMAI score, p for F(order×treatment): 0.12
[6]; [14]
  CMAI score as percentage of the baseline, F(order×time): 2.35
  CMAI score as percentage of the baseline, p for order×time interaction: 0.05
[6]; second treatment period of crossover
  Disturbed behavior, difference in the second treatment period: no difference in the disturbed behavior in the second treatment period
[6]; two scales: CMAI and Observed Affect Scale
  Agitation (CMAI and Observed Affect Scale), change: Decreased agitation
[7]
  PRN psychoactive medication doses, average: 7.2 doses/6 weeks
